Assay results: US8410053B2, “Methods for treating autoimmune disorders, and reagents related thereto” (Trustees of Tufts College, priority 2001, dated 2013)

Tests used:
[1] = target: DP-IV (Homo sapiens, UniProt P27487); test: Inhibition / affinity for DP-IV; assay type: biochemical
[2] = target: T1, DPIV (Rattus norvegicus, UniProt P14740); test: DPIV assays on serum samples from rats; assay type: in vivo; settings: rat serum 1 hour after treatment; Ala-Pro-paranitroanalide substrate, pH 8
T1 construct: from tissue; host or cells: rat serum
Procedure: Four rats were used in this experiment: two females (#3 and #9) and two males (#10 and #11). Blood and plasma samples were collected from rats 1 hour after being treated with Cyclohexylglycine-boroAla. The collected serum samples were evaluated for DPPIV activity of Cyclohexylglycine-boroAla as follows: • 1. 2 mg of Ala-Pro-paranitroanalide (substrate) was dissolved in 20 ml 0.1 M HEPES pH 8, 0.14 M NaCl (buffer). • 2. Serum samples were diluted into substrate solution in the wells of a microtiter plate. For each sample, 10 uL of serum was diluted into 150 μL of substrate. • 3. A reading of the A410 in each well was recorded immediately after the dilution of serum into substrate, and again after approximately 1 hour. The time of data acquisition for each reading is recorded in the data file by the microplate reader software.
The rate of absorbance change was obtained by subtracting the first reading from the second and dividing by the reaction time to give DeltaA410/hr. The DPIV activity was plotted in units of DeltaA410 hr^−1μ^−1.

[3] = In vivo regulation of glucose metabolism
[4] = tested on: NOD mice; test: Incidence of diabetes in NOD mice upon treatment with DPIV inhibitors; assay type: in vivo
Procedure: The experiment was started on 8-10 week old NOD mice. The mice were kept under VAF/SPF conditions and fed everyday with either Val-boro-Pro (0.034 mg/kg) or Cyclohexyl-boro-Ala (0.34 mg/kg) for 60 days and then observed for the development of spontaneous diabetes. The mice were tested for the excretion of sugar in urine and considered positive for diabetes when sugar was detected in the urine.

[5] = in vivo, cited from earlier work
[6] = chronic (>5 days) treatment, alone

Chain of DP-IV (P27487 whole entry): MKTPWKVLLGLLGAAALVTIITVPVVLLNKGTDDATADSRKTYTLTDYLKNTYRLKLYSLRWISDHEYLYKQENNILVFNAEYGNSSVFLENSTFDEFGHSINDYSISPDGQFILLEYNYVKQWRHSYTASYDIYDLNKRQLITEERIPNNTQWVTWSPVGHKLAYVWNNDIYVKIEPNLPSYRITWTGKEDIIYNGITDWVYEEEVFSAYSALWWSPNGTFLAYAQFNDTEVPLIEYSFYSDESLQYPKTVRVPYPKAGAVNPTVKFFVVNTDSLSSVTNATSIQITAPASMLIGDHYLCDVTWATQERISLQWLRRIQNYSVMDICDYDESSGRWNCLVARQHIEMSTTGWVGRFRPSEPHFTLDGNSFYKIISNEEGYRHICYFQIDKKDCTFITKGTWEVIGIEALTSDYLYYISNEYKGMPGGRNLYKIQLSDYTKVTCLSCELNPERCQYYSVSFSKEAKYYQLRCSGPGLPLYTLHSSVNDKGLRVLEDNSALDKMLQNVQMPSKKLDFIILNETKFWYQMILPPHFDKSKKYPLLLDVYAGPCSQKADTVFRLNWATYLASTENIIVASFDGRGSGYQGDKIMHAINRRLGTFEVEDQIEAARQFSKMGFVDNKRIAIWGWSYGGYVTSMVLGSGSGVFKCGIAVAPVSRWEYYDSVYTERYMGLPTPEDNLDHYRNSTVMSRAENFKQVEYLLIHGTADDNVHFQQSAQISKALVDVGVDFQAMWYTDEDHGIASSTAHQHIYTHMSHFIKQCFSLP
T1 sequence (P14740 38-767 limits assumed): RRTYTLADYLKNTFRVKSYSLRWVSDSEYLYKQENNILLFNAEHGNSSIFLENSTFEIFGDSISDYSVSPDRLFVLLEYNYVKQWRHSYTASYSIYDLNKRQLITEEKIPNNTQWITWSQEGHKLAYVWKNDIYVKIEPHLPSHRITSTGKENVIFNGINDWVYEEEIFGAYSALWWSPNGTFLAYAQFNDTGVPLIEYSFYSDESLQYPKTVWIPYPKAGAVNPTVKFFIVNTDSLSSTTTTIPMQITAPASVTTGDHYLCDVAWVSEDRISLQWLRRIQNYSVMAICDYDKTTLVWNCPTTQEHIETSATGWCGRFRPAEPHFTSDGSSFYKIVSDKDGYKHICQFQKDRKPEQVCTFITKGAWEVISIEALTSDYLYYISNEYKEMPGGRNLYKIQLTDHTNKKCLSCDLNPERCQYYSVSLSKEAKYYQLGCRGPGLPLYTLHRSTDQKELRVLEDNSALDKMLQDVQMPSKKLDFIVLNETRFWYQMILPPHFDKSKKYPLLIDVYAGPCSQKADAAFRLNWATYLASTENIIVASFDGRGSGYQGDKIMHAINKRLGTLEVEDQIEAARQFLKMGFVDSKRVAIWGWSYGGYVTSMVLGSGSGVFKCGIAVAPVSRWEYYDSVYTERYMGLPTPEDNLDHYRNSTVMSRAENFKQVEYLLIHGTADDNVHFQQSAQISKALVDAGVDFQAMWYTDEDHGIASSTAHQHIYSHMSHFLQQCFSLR

CC(NC(=O)OC(C)(C)C)C(=O)N1CCCC1B(O)O (stereo not drawn) [Boc-blocked Ala-boroPro, Boc-Ala-boroPro]
affinity for DP-IV [1]: no affinity

CC(NC(=O)C(N)C1CCCCC1)B(O)O (stereo not drawn) [Cyclohexylglycine-boroAla]
DPIV enzyme activity in serum [2]: significantly decreased

O=C(C1CCCN1)N1CCCC1B(O)O (stereo not drawn) [Pro-boro-Pro]
fasting blood sugars [3, 6]: lowers | glycemic excursion to oral glucose challenge [3, 6]: lowers | response to a subtherapeutic dose of GLP-1 ([3]; single injection): potentiate the response | glucose control ([3]; single injection, alone): alone sufficient to improve glucose control

CC(C)[C@H](N)C(=O)N1CCC[C@H]1B(O)O [Val-boro-Pro]
recovery of mice that showed signs of diabetes ([4]; 0.034 mg/kg fed every day for 60 days): some of the mice that showed signs of diabetes got better and recovered | incidence of Diabetes ([4]; 0.034 mg/kg fed every day for 60 days, end of the experiment): low incidence of Diabetes | general health compared to the other groups ([4]; end of the experiment): generally good health

L-Ala-L-boroPro-pinacol
extent of DP-IV inhibition, silica gel fractions compared ([1]; early fraction vs later fractions at equal concentrations): inhibits DP-IV to a greater extent than later fractions

glucagon-like peptide-1 [GLP-1]
degradation ([5]; iv): extensively degraded | degradation without inhibitor ([5]; sc): rapidly degraded in a time-dependent manner
